A value given as a limit tells only on which side of the number the result lay.

The values that follow come from US8987287B2, “Spirocyclic morphinans and their use” (Purdue Pharma L.P., priority 2012, dated 2015).

Experiment [1] deals with μ-opioid receptor (Homo sapiens (Human), UniProt P35372). Briefly: μ-opioid receptor [35S]GTPγS functional assay, U-2 OS cells. Type of experiment: biochemical. The conditions noted are these: for Emax: relative to DAMGO, U-2 OS cells. On the procedure: μ-Opioid Receptor Functional Assay Procedures: [^35S]GTPγS functional assays were conducted using freshly thawed μ-receptor membranes prepared in-house from a cell line expressing recombinant μ opioid receptor in a HEK-293, CHO or U-2 OS cell background, or purchased from a commercial source (Perkin Elmer, Shelton, Conn.; or DiscovRx, Fremont, Calif.). Assay reactions were prepared by sequentially adding the following reagents to binding buffer (100 mM NaCl, 10 mM MgCl2, 20 mM HEPES, pH 7.4) on ice (final concentrations indicated): membrane protein (0.026 mg/mL), saponin ([…]), GDP ([…]) and [^35S]GTPγS (0.20 nM; Perkin Elmer, Shelton, Conn.). The prepared membrane solution (190 μl/well) was transferred to 96-shallow well polypropylene plates containing 10 μl of 20× concentrated stock solutions of the agonist [D-Ala^2, N-methyl-Phe^4 Gly-ol^5]-enkephalin (DAMGO) prepared in dimethyl sulfoxide (DMSO). Plates were incubated for 30 min at about 25° C. with shaking. Reactions were terminated by rapid filtration onto 96-well Unifilter GF/B filter plates (Perkin Elmer, Shelton, Conn.) using a 96-well tissue harvester (Perkin Elmer, Shelton, Conn.) followed by three filtration washes with 200 μl of ice-cold wash buffer (10 mM NaH2PO4, 10 mM Na2HPO4, pH 7.4). Filter plates were subsequently dried at 50° C. for 2-3 hours. BetaScint scintillation cocktail (Perkin Elmer, Shelton, Conn.) was added (50 μl/well) and plates were counted using a Packard Top-Count for 1 min/well. Data were analyzed using the sigmoidal dose-response curve fitting functions in GraphPad PRISM v. 3.0, or an in-house function for non-linear, sigmoidal dose-response curve-fitting.
μ-Opioid Receptor Functional Data: μ GTP EC50 is the concentration of a compound providing 50% of the maximal response for the compound at a μ-opioid receptor.
μ GTP Emax (%) is the maximal effect elicited by a compound relative to the effect elicited by DAMGO, a standard μ agonist. Generally, the μ GTP Emax (%) value measures the efficacy of a compound to treat or prevent pain or other Conditions.
(§1) The following TABLE 3 provides results on the activity response of certain Compounds of the Invention at the μ- and κ-opioid receptors determined as described above using U-2 OS cells.
A general note: GTPγS resists hydrolysis and so accumulates on activated G proteins.

Experiment [2] has as its target κ opioid receptor (Homo sapiens (Human), UniProt P41145). Briefly: κ-opioid receptor [35S]GTPγS functional assay, U-2 OS cells. The conditions noted are these: for Emax: relative to U69,593, U-2 OS cells. Type of experiment: biochemical. On the procedure:
κ-Opioid Receptor Functional Assay Procedures: Functional [^35S]GTPγS binding assays were conducted as follows. κ opioid receptor membrane solution was prepared by sequentially adding final concentrations of 0.026 μg/μl κ membrane protein (in-house), 10 μg/mL saponin, 3 μM GDP and 0.20 nM [^35S]GTPγS to binding buffer (100 mM NaCl, 10 mM MgCl2, 20 mM HEPES, pH 7.4) on ice. The prepared membrane solution (190 μl/well) was transferred to 96-shallow well polypropylene plates containing 10 μl of 20× concentrated stock solutions of agonist prepared in DMSO. Plates were incubated for 30 min at a temperature of about 25° C. with shaking. Reactions were terminated by rapid filtration onto 96-well Unifilter GF/B filter plates (Perkin Elmer, Shelton, Conn.) using a 96-well tissue harvester (Packard) and followed by three filtration washes with 200 μl ice-cold binding buffer (10 mM NaH2PO4, 10 mM Na2HPO4, pH 7.4). Filter plates were subsequently dried at 50° C. for 2-3 hours. Fifty μl/well scintillation cocktail (Perkin Elmer, Shelton, Conn.) was added and plates were counted in a Packard Top-Count for 1 min/well.
κ-Opioid Receptor Functional Data: κ GTP EC50 is the concentration of a compound providing 50% of the maximal response for the compound at a κ receptor.
κ GTP Emax (%) is the maximal effect elicited by a compound relative to the effect elicited by U69,593.
as §1

For orientation: EC50 means the concentration giving half of the maximal effect. A lower EC50 goes with an effect from little substance. The Emax is the maximal effect, on the per cent scale that the assay sets. `O=C1NC(=O)[C@@]2(CC[C@@]3(O)[C@H]4Cc5ccc(O)cc5[C@@]3(CCN4CC3CCCCC3)C2)N1` [Compound 27, (4bR,4′S,8aS,9R)-11-(cyclohexylmethyl)-3,8a-dihydroxy-5,7,8,8a,9,10-hexahydrospiro[9,4b-(epiminoethano)phenanthrene-6,4′-imidazolidine]-2′,5′-dione]: in experiment [1], the EC50 was found to be 12.8 ± 3.86 µM and the Emax amounted to 21.3 ± 1.86%. In experiment [2], this molecule came in with an EC50 of 2.08 ± 0.406 µM and an Emax of 33.3 ± 3.53%.
For `O=C1NC(=O)[C@@]2(CC[C@@]3(O)[C@H]4Cc5ccc(O)cc5[C@@]3(CCN4CC3CC3)C2)N1CC1CC1` [Compound 65, (4S,4b′R,8a′S,9′R)-3,11′-bis(cyclopropylmethyl)-3′,8a′-dihydroxy-8′,8a′,9′,10′-tetrahydro-5′H,7′H-spiro[imidazolidine-4,6′-[9,4b](epiminoethano)phenantrene]-2,5-dione], in that order: above 20 µM, 2%, 0.0364 ± 0.00708 µM and 92.3 ± 1.45%.
In experiment [1], `COc1ccc2c(c1)[C@]13CCN(CC(F)(F)F)[C@H](C2)[C@]1(O)CC[C@@]1(C3)NC(=O)NC1=O` [Compound 13, (4bR,4′S,8aS,9R)-8a-hydroxy-3-methoxy-11-(2,2,2-trifluoroethyl)-5,7,8,8a,9,10-hexahydrospiro[9,4b-(epiminoethano)phenanthrene-6,4′-imidazolidine]-2′,5′-dione] gave an EC50 above 20 µM and an Emax of 10%. In experiment [2], this molecule displayed an EC50 above 20 µM and a maximal response (Emax) of 65 ± 8.74%.
In experiment [1], `COc1ccc2c(c1)[C@]13CCN(CCC(F)(F)F)[C@H](C2)[C@]1(O)CC[C@@]1(C3)NC(=O)NC1=O` [Compound 17, (4bR,4′S,8aS,9R)-8a-hydroxy-3-methoxy-11-(3,3,3-trifluoropropyl)-5,7,8,8a,9,10-hexahydrospiro[9,4b-(epiminoethano)phenanthrene-6,4′-imidazolidine]-2′,5′-dione] yielded an EC50 above 20 µM and an Emax of 18.5 ± 6.14%. Besides, in experiment [2], the EC50 is above 20 µM and the Emax stood at 83.7 ± 6.69%.
In experiment [1], `CN1CC[C@]23C[C@@]4(CC[C@@]2(O)[C@H]1Cc1ccc(O)cc13)C(=O)NC(=O)N4CC1CC1` [Compound 66, (4bR,4′S,8aS,9R)-3′-(cyclopropylmethyl)-3,8a-dihydroxy-11-methyl-5,7,8,8a,9,10-hexahydrospiro[9,4b-(epiminoethano)phenanthren-6,4′-imidazolidine]-2′,5′-dione] came in with an EC50 of 0.076 ± 0.00231 µM and an Emax of 98 ± 1.15%. In experiment [2], this molecule showed an EC50 of 4.65 ± 0.302 µM and a maximal effect (Emax) of 103 ± 7.09%.
In the case of `O=C1NC(=O)[C@@]2(CC[C@@]3(O)[C@H]4Cc5ccc(O)cc5[C@@]3(CCN4CCCC(F)(F)F)C2)N1` [Compound 34, (4bR,4′S,8aS,9R)-3,8a-dihydroxy-11-(4,4,4-trifluorobutyl)-5,7,8,8a,9,10-hexahydrospiro[9,4b-(epiminoethano)phenanthrene-6,4′-imidazolidine]-2′,5′-dione], in experiment [1], a half-maximal response (EC50) required 0.869 ± 0.131 µM and the Emax stood at 47 ± 2.08%. For the same molecule, in experiment [2], the concentration giving a half-maximal response (EC50) was 2.24 ± 0.12 µM and the Emax came to 87.7 ± 3.28%.
In experiment [1], `CCN1C(=O)N(CC)[C@]2(CC[C@@]3(O)[C@H]4Cc5ccc(O)cc5[C@@]3(CCN4CC3CC3)C2)C1=O` [Compound 46, (4S,4b′R,8a′S,9′R)-11′-(cyclopropylmethyl)-1,3-diethyl-3′,8a′-dihydroxy-8′,8a′,9′,10′-tetrahydro-5′H,7′H-spiro[imidazolidine-4,6′-[9,4b](epiminoethano)phenantrene]-2,5-dione] yielded an EC50 of 0.00174 ± 0.00022 µM and a maximum response (Emax) of 10.7 ± 0.33%. In experiment [2], this molecule had a 50% effective concentration (EC50) of 0.00157 ± 0.00019 µM and a maximal response (Emax) of 96.7 ± 3.67%.
On the same counts, the results for `CCN1C(=O)NC(=O)[C@@]12CC[C@@]1(O)[C@H]3Cc4ccc(O)cc4[C@@]1(CCN3C)C2` [Compound 69, (4S,4b′R,8a′S,9′R)-3-ethyl-3′,8a′-dihydroxy-11′-methyl-8′,8a′,9′,10′-tetrahydro-5′H,7′H-spiro[imidazolidine-4,6′-[9,4b](epiminoethano)phenantrene]-2,5-dione] are 0.0436 ± 0.00297 µM, 97.3 ± 1.45%, 0.866 ± 0.0946 µM and 110 ± 8.5%.
For `C=C(C)CCN1CC[C@]23C[C@]4(CC[C@@]2(O)[C@H]1Cc1ccc(O)cc13)NC(=O)NC4=O` [Compound 37, (4bR,4′S,8aS,9R)-3,8a-dihydroxy-11-(3-methylbut-3-en-1-yl)-5,7,8,8a,9,10-hexahydrospiro[9,4b-(epiminoethano)phenanthrene-6,4′-imidazolidine]-2′,5′-dione], in that order: 0.0187 ± 0.00253 µM, 92 ± 5%, 0.0335 ± 0.00967 µM and 101 ± 1.76%.
On the same counts, the results for `COc1ccc2c(c1)[C@]13CCN(CC4CCOCC4)[C@H](C2)[C@]1(O)CC[C@@]1(C3)NC(=O)NC1=O` [Compound 25, (4bR,4′S,8aS,9R)-8a-hydroxy-3-methoxy-11-((tetrahydro-2H-pyran-4-yl)methyl)-5,7,8,8a,9,10-hexahydrospiro[9,4b-(epiminoethano)phenanthrene-6,4′-imidazolidine]-2′,5′-dione] are above 20 µM, 6.67 ± 0.88%, above 20 µM and 10 ± 4.6%.
As for `COc1ccc2c(c1)[C@]13CCN(CCc4ccccc4)[C@H](C2)[C@]1(O)CC[C@@]1(C3)NC(=O)NC1=O` [Compound 20, (4bR,4′S,8aS,9R)-8a-hydroxy-3-methoxy-11-phenethyl-5,7,8,8a,9,10-hexahydrospiro[9,4b-(epiminoethano)phenanthrene-6,4′-imidazolidine]-2′,5′-dione], the EC50 was 0.664 ± 0.113 µM in experiment [1] and above 20 µM in experiment [2]. Also, the values for the maximal response (Emax) in experiment [1] and in experiment [2] were 105 ± 1.23% and 75.7 ± 11.5%, respectively.
On the same counts, the results for `CCN1C(=O)N[C@]2(CC[C@@]3(O)[C@H]4Cc5ccc(O)cc5[C@@]3(CCN4C)C2)C1=O` [Compound 61, (4S,4b′R,8a′S,9′R)-1-ethyl-3′,8a′-dihydroxy-11′-methyl-8′,8a′,9′,10′-tetrahydro-5′H,7′H-spiro[imidazolidine-4,6′-[9,4b](epiminoethano)phenantrene]-2,5-dione] are 0.0391 ± 0.00482 µM, 2.48 ± 0.249 µM, 103.3 ± 0.88% and 109 ± 6.06%.
For `COc1ccc2c(c1)[C@]13CCN(CCF)[C@H](C2)[C@]1(O)CC[C@@]1(C3)NC(=O)NC1=O` [Compound 14, (4bR,4′S,8aS,9R)-1-(2-fluoroethyl)-8a-hydroxy-3-methoxy-5,7,8,8a,9,10-hexahydrospiro[9,4b-(epiminoethano)phenanthrene-6,4′-imidazolidine]-2′,5′-dione], in that order: above 20 µM, above 20 µM, 14.5% and 110 ± 6.74%.
With `COc1ccc2c(c1)[C@]13CCN(CCC(C)C)[C@H](C2)[C@]1(O)CC[C@@]1(C3)NC(=O)NC1=O` [Compound 22, (4bR,4′S,8aS,9R)-8a-hydroxy-11-isopentyl-3-methoxy-5,7,8,8a,9,10-hexahydrospiro[9,4b-(epiminoethano)phenanthrene-6,4′-imidazolidine]-2′,5′-dione], the EC50 was 3.96 ± 1.41 µM in experiment [1] and above 20 µM in experiment [2]. Moreover, the Emax in experiment [1] is 46 ± 6%; in experiment [2], 91.3 ± 6.57%.
